Data taken from EP2161259A1, “4-Haloalkyl substituted Diaminopyrimidine” (Bayer CropScience AG, priority 2008, dated 2010).

Assays:
Puccinia recondita = test: Puccinia test (wheat) / protective; assay type: in vivo
Fumonisin FB1 = test: Production of fumonisin FB1 by Fusarium proliferatum (microtiter plate, HPLC-MS/MS); assay type: cell-based; conditions: 144 h, read-out: pI50 FB1
Fusarium proliferatum = test: microbe, parasite or virus in culture; assay type: cell-based; conditions: 144 h, read-out: pI50 Wachstum
Venturia inaequalis = assay type: in vivo; conditions: 240 h, 100 ppm
From the text: Lösungsmittel: 24,5 Gewichtsteile Aceton 24,5 Gewichtsteile Dimethylacetamid Emulgator : 1 Gewichtsteil Alkyl-Aryl-Polyglykolether Zur […] und Emulgator und verdünnt das Konzentrat mit Wasser auf die gewünschte Konzentration. Zur Prüfung auf protektive Wirksamkeit werden junge Pflanzen mit der Wirkstoffzubereitung in der angegebenen Aufwandmenge besprüht. Nach Antrocknen des Spritzbelages werden die Pflanzen mit einer wäßrigen Konidiensuspension des […] Venturia inaequalis inokuliert und verbleiben dann 1 Tag bei ca. 20°C und 100% relativer Luftfeuchtigkeit in einer Inkubations-kabine. Die Pflanzen werden dann im Gewächshaus bei ca. 21°C und einer relativen Luftfeuchtigkeit von ca. 90% aufgestellt. 10 Tage nach der Inokulation erfolgt die Auswertung. Dabei bedeutet 0% ein Wirkungsgrad, der demjenigen der Kontrolle entspricht, während ein Wirkungsgrad von 100% bedeutet, daß kein Befall beobachtet wird.

Alternaria solani = test: Alternaria test (tomato) / protective; assay type: in vivo
[1] = system: Fusarium nivale (var.majus); assay type: in vivo; conditions: 120 h, 1000 ppm
From the text: […]-Dimethylacetamid Emulgator: 1 Gewichtsteil Alkylarylpolyglykolether Zur […] und Emulgator und verdünnt das Konzentrat mit Wasser auf die gewünschte Konzentration. Zur Prüfung auf protektive Wirksamkeit besprüht man junge Pflanzen mit der Wirkstoffzubereitung in der angegebenen Aufwandmenge. Nach Antrocknen des Spritzbelages werden die Pflanzen mit Sporen mit einer Sporensuspension von Fusarium nivale (var.majus) besprüht. Die Pflanzen werden in einer Gewächshauskammer unter […] Inkubationshaube bei 10°C und 100 % relativer Luftfeuchtigkeit gestellt. 5 Tage nach der Inokulation erfolgt die Auswertung. Dabei bedeutet 0 % ein Wirkungsgrad, der demjenigen der Kontrolle entspricht, während ein Wirkungsgrad von 100 % bedeutet, dass kein Befall beobachtet wird.

Botrytis cinerea = assay type: in vivo; conditions: 48 h, 250 ppm
From the text: Lösungsmittel: 24,5 Gewichtsteile Aceton 24,5 Gewichtsteile Dimethylacetamid Emulgator : 1 Gewichtsteil Alkyl-Aryl-Polyglykolether Zur […] und Emulgator und verdünnt das Konzentrat mit Wasser auf die gewünschte Konzentration. Zur Prüfung auf protektive Wirksamkeit werden junge Pflanzen mit der Wirkstoffzubereitung in der angegebenen Aufwandmenge besprüht. Nach Antrocknen des Spritzbelages werden auf jedes Blatt 2 […] Botrytis cinerea […]. Die inokulierten Pflanzen werden in einer abgedunkelten Kammer bei ca. 20°C und 100% relativer Luftfeuchtigkeit aufgestellt. 2 Tage nach der Inokulation wird die Größe der Befallsflecken auf den Blä[…]. Dabei bedeutet 0% ein Wirkungsgrad, der demjenigen der Kontrolle entspricht, während ein Wirkungsgrad von 100% bedeutet, daß kein Befall beobachtet wird.

Pyricularia oryzae = assay type: in vivo; conditions: 250ppm active compound; rice, protective; evaluation 7 days after inoculation
Cochliobolus miyabeanus = test: Cochliobolus test (rice) / protective; assay type: in vivo; conditions: 250ppm active compound, evaluation 4 days after inoculation
Gibberella zeae = conditions: in vivo
[2] = 500ppm active compound, wheat, protective, evaluation 7-9 days after inoculation

SMILES	Wirkungsgrad (Puccinia recondita; 500 ppm) [%]	chromatographic logP (physchem; pH 2.7)	also measured
O=S(=O)(c1cccc(Nc2ncc(Cl)c(NCC(F)(F)F)n2)c1)N1CCCCC1 [Verbindung 26]	≥ 70	2.58	
CNC(=O)c1cccc(Nc2ncc(Cl)c(NCC(F)(F)F)n2)c1 [Verbindung 23]	≥ 70	1.66	
COc1cccc(Nc2ncc(Cl)c(NCC(F)(F)F)n2)c1 [Verbindung 6]	≥ 70	2.55	IC50 (Fumonisin FB1): 1.58 µM; IC50 (Fusarium proliferatum): 3.16 µM
FC(F)CNc1nc(Nc2ccccc2)ncc1Cl [Verbindung 1, 5-Chlor-N^4-(2,2-difluorethyl)-N^2-phenylpyrimidin-2,4-diamin]			Wirkungsgrad (Venturia inaequalis): ≥ 70%; Wirkungsgrad (Alternaria solani; 168 h, 500 ppm): ≥ 70%; Wirkungsgrad [1]: ≥ 70%; IC50 (Fumonisin FB1): 3.16 µM; IC50 (Fusarium proliferatum): 7.94 µM; chromatographic logP (physchem; pH 2.3): 1.89
CSc1ccc(Nc2ncc(Cl)c(NCC(F)(F)F)n2)cc1 [Verbindung 25]		2.92	
CC(=O)c1cccc(Nc2ncc(Cl)c(NCC(F)(F)F)n2)c1 [Verbindung 29]	≥ 70	2.39	Wirkungsgrad [1]: ≥ 70%; IC50 (Fumonisin FB1): 10 µM; IC50 (Fusarium proliferatum): > 50.1 µM
CC(=O)N(C)c1ccc(Nc2ncc(Cl)c(NCC(F)(F)F)n2)cc1 [Verbindung 16]	≥ 70	1.92	Wirkungsgrad (Alternaria solani; 168 h, 500 ppm): ≥ 70%
COC(=O)Nc1ccc(Nc2ncc(Cl)c(NCC(F)(F)F)n2)cc1 [Verbindung 31]		1.85	
CC(=O)Nc1cccc(Nc2ncc(Cl)c(NCC(F)(F)F)n2)c1 [Verbindung 19]	≥ 70	1.66	
CN(C)C(=O)c1ccc(Nc2ncc(Cl)c(NCC(F)(F)F)n2)cc1 [Verbindung 48]		1.93	Wirkungsgrad (Alternaria solani; 168 h, 500 ppm): ≥ 70%
CCN(C(C)=O)c1ccc(Nc2ncc(Cl)c(NCC(F)(F)F)n2)cc1 [Verbindung 15]	≥ 70	2.13	Wirkungsgrad (Alternaria solani; 168 h, 500 ppm): ≥ 70%
CS(=O)(=O)c1ccc(Nc2ncc(Cl)c(NCC(F)(F)F)n2)cc1 [Verbindung 10]		2.21	
CC(C)(C)C(=O)Nc1cccc(Nc2ncc(Cl)c(NCC(F)(F)F)n2)c1 [Verbindung 21]	≥ 70	2.51	
Cc1cccc(Nc2ncc(Cl)c(NCC(F)F)n2)c1 [Verbindung 45]	≥ 70	2.27	IC50 (Fumonisin FB1): 1.58 µM; IC50 (Fusarium proliferatum): 5.01 µM
N#CCc1cccc(Nc2ncc(Cl)c(NCC(F)F)n2)c1 [Verbindung 43]	≥ 70	1.89	Wirkungsgrad (Botrytis cinerea): ≥ 70%; Wirkungsgrad (Alternaria solani; 168 h, 500 ppm): ≥ 70%; IC50 (Fumonisin FB1): 1.26 µM; IC50 (Fusarium proliferatum): 6.31 µM; Wirkungsgrad (Pyricularia oryzae): ≥ 80%; Wirkungsgrad (Cochliobolus miyabeanus): ≥ 80%
N#Cc1ccc(Nc2ncc(Cl)c(NCC(F)(F)F)n2)cc1 [Verbindung 8]		2.77	
COc1cc(Nc2ncc(Cl)c(NCC(F)(F)F)n2)ccc1NC(C)=O [Verbindung 5]	≥ 70	1.75	
C=CCNC(=O)c1ccc(Nc2ncc(Cl)c(NCC(F)F)n2)cc1 [Verbindung 41]	≥ 70	1.84	
O=Cc1cccc(Nc2ncc(Cl)c(NCC(F)F)n2)c1 [Verbindung 47]			Wirkungsgrad (Puccinia recondita; [2]): ≥ 70%; chromatographic logP (physchem; pH 7.8): 2.49
FC(F)(F)CNc1nc(Nc2ccccc2)ncc1Cl [Verbindung 3, 5-Chlor-N^2-phenyl-N^4-(2,2,2-trifluorethyl)pyrimidin-2,4-diamin]	≥ 70		Wirkungsgrad (Venturia inaequalis): ≥ 70%; Wirkungsgrad [1]: ≥ 70%; IC50 (Fumonisin FB1): 2 µM; IC50 (Fusarium proliferatum): 12.6 µM; chromatographic logP (physchem; pH 2.3): 2.56; chromatographic logP (physchem; pH 7.8): 3.09
O=Cc1cccc(Nc2ncc(Cl)c(NCC(F)(F)F)n2)c1 [Verbindung 46]			Wirkungsgrad (Alternaria solani; 500ppm active compound, tomato, protective, evaluation 7 days after inoculation): ≥ 70%; Wirkungsgrad (Puccinia recondita; [2]): ≥ 70%; chromatographic logP (physchem; pH 7.8): 2.67
CC(C)(C)C(=O)Cc1ccc(Nc2ncc(Cl)c(NCC(F)(F)F)n2)cc1 [Verbindung 27]		3.17	Wirkungsgrad (Alternaria solani; 168 h, 500 ppm): ≥ 70%
COC(=O)Nc1cccc(Nc2ncc(Cl)c(NCC(F)(F)F)n2)c1 [Verbindung 35]	≥ 70	2.06	IC50 (Fumonisin FB1): 31.6 µM; IC50 (Fusarium proliferatum): 39.8 µM
CC(=O)Nc1ccc(Nc2ncc(Cl)c(NCC(F)(F)F)n2)cc1 [Verbindung 13]	≥ 70	1.54	

SMILES	Wirkungsgrad (Puccinia recondita; 500 ppm) [%]	chromatographic logP (physchem; pH 2.7)	also measured
CCOC(=O)Nc1cccc(Nc2ncc(Cl)c(NCC(F)(F)F)n2)c1 [Verbindung 33]		2.36	
CC(CC(F)(F)F)Nc1nc(Nc2ccccc2)ncc1Br (stereo not shown) [Verbindung 42, 5-Brom-N^2-phenyl-N^4-(4,4,4-trifluorbutan-2-yl)pyrimidin-2,4-diamin]		2.4	
CNC(=O)c1ccc(Nc2ncc(Cl)c(NCC(F)(F)F)n2)cc1 [Verbindung 22]		1.66	
CN(C)S(=O)(=O)c1ccc(Nc2ncc(Cl)c(NCC(F)(F)F)n2)cc1 [Verbindung 11]		2.64	
CSc1ccc(Nc2ncc(Cl)c(NCC(F)(F)F)n2)cc1Cl [Verbindung 12]		3.55	
CC(=O)Nc1cc(Nc2ncc(Cl)c(NCC(F)(F)F)n2)ccc1C [Verbindung 38]	≥ 70	1.61	
COc1ccc(Nc2ncc(Cl)c(NCC(F)(F)F)n2)cc1 [Verbindung 7]		2.06	
CC1(C(=O)Nc2ccc(Nc3ncc(Cl)c(NCC(F)(F)F)n3)cc2)CC1 [Verbindung 18]		2.16	
CC(=O)c1ccc(Nc2ncc(Cl)c(NCC(F)(F)F)n2)cc1 [Verbindung 28]		2.51	
CC(C)(CF)C(=O)Nc1cccc(Nc2ncc(Cl)c(NCC(F)(F)F)n2)c1 [Verbindung 37]	≥ 70	2.42	
CNC(=O)Oc1cccc(Nc2ncc(Cl)c(NCC(F)(F)F)n2)c1 [Verbindung 34]			IC50 (Fumonisin FB1): 10 µM; IC50 (Fusarium proliferatum): > 50.1 µM; Wirkungsgrad (Gibberella zeae): ≥ 80%
O=C(Nc1ccc(Nc2ncc(Cl)c(NCC(F)(F)F)n2)cc1)C(F)(F)F [Verbindung 17]		2.55	
O=c1[nH]c(Nc2ccccc2)ncc1Br [IX-1, 2-Anilino-5-brompyrimidin-4(3H)-on]			chromatographic logP (physchem; pH 2.3): 1.62
CCOC(=O)Nc1ccc(Nc2ncc(Cl)c(NCC(F)(F)F)n2)cc1 [Verbindung 32]		2.11	
CSc1cccc(Nc2ncc(Cl)c(NCC(F)(F)F)n2)c1 [Verbindung 24]	≥ 70	3.04	Wirkungsgrad [1]: ≥ 70%; IC50 (Fumonisin FB1): 31.6 µM; IC50 (Fusarium proliferatum): > 50.1 µM
N#Cc1cccc(Nc2ncc(Cl)c(NCC(F)(F)F)n2)c1 [Verbindung 4]		2.67	Wirkungsgrad (Alternaria solani; 168 h, 500 ppm): ≥ 70%
Cc1cccc(Nc2ncc(Cl)c(NCC(F)(F)F)n2)c1 [Verbindung 44]		2.88	IC50 (Fumonisin FB1): 1.26 µM; IC50 (Fusarium proliferatum): 20 µM
COc1cccc(Nc2ncc(Cl)c(NCC(F)F)n2)c1 [Verbindung 39]		1.96	IC50 (Fumonisin FB1): 3.16 µM; IC50 (Fusarium proliferatum): 10 µM
FC(F)(F)CNc1nc(Nc2cccc(OC(F)(F)F)c2)ncc1Cl [Verbindung 9]		3.72	
O=C1NC(=O)C(c2ccc(Nc3ncc(Cl)c(NCC(F)(F)F)n3)cc2)N1 (stereo not shown) [Verbindung 30]		1.47	
CC(=O)Nc1ccc(Nc2ncc(Cl)c(NCC(F)(F)F)n2)cc1Cl [Verbindung 14]		2.04	
CC(Nc1nc(Nc2ccccc2)ncc1Cl)C(F)(F)F (stereo not shown) [Verbindung 2]			chromatographic logP (physchem; pH 2.3): 2.87
CN(C)C(=O)c1ccc(Nc2ncc(Cl)c(NCC(F)F)n2)cc1 [Verbindung 40]	≥ 70	1.55	
C=C(C)C(=O)Nc1cccc(Nc2ncc(Cl)c(NCC(F)(F)F)n2)c1 [Verbindung 20]		2.16	
